Where a name gives a salt, the structure may show the parent alone.
Columns and labels:
JAK2 = JAK2 (Homo sapiens, UniProt O60674); assay: JAK kinase inhibitory activity, HTRF biochemical assay
Protocol: (§1) The compounds of the above embodiments were applied to the detection and screening of JAK kinase inhibitory activity.
(§2) A corresponding volume of DMSO was added to each well of a first 96-well plate. 20-30 μL of 100-200 μM stock solution of different test compounds were added to each well. The mixture was shaken and mixed for 3 min. All of the compounds were subjected to 3× serial dilution. 60-80 μL Kinase buffer was added to each well of a second 96-well plate, and 1-2 μL of the solution taken from each well of the first 96-well plate was added to the corresponding well of the second 96-well plate. The mixture was shaken and mixed for 3 min. 5 μL of compound dilution taken from each well of the second compound dilution plate was transferred to the corresponding well of a 384-well test plate. 1-2 μL TK Substrate-biotin was added to each well of the test plate. 1-2 μL of enzyme mixture was added to each well. At the same time, a blank well without enzyme was set. 1-2 μL of ATP solution was added to each well, the plate was sealed and reacted at room temperature. The reaction time was as follows: JAK1: 2 h, JAK2: 30 min, JAK3: 30 min, and TYK2: 50 min. 3-5 μL of Streptavidin-XL665 and 3-5 μL of TK Antibody-cryptate were added to each well, the plate was sealed and allowed to stand at room temperature for 30 min to complete the reaction.
(§3) The percentage of inhibition was calculated based on the following formula:
(§4) Inhibition %=[(Ratiomax−Ratiocompound)/(Ratiomax−Ratiomin)]×100%
(§5) Ratiocompound is the HTRF ratio at a given compound concentration, Ratiomin is the HTRF ratio added to the blank well, and Ratiomax is the HTRF ratio without adding the compound. GraphPad Prism 5.0 software was used to plot a sigmoid dose-inhibition rate curve with a non-linear regression model and calculate the IC50 value.

JAK3 = target: T1, JAK3 (Homo sapiens, UniProt P52333); assay: as above
T1 sequence (P52333 1-1124): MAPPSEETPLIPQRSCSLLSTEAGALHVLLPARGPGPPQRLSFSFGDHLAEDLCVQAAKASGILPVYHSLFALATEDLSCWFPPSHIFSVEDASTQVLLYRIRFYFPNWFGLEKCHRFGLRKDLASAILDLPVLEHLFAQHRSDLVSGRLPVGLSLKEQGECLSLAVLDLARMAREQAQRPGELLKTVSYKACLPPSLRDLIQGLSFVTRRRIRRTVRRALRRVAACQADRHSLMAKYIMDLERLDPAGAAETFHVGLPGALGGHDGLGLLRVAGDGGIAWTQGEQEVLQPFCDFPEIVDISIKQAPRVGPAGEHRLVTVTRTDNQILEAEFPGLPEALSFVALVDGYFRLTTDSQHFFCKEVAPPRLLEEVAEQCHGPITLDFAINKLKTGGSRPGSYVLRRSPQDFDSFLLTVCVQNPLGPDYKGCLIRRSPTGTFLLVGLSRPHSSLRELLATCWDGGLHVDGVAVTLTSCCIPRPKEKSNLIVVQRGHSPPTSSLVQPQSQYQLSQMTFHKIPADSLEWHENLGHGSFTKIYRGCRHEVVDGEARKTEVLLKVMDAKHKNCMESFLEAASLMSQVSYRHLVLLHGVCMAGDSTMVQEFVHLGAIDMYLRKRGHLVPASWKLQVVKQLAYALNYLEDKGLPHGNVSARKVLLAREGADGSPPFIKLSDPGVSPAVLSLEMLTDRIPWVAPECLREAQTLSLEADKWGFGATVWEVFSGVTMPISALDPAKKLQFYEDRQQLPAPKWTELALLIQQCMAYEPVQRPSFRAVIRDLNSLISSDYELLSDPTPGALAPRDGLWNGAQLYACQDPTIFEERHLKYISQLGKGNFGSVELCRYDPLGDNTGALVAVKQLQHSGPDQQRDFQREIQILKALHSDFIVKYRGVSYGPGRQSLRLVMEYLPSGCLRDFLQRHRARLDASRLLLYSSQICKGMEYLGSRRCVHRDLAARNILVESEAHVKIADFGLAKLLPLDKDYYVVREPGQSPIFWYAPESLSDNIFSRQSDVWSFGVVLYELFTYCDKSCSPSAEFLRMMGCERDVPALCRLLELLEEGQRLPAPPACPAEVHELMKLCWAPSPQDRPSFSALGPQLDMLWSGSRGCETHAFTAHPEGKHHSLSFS
Protocol: as §1, §2, §3, §4, §5

JAK1 = JAK1 (Homo sapiens, UniProt P23458); assay: as above
Protocol: as §1, §2, §3, §4, §5

TYK2 = TYK2 (Homo sapiens, UniProt P29597); assay: as above
Protocol: as §1, §2, §3, §4, §5

rat CIA model [1] = assay: Hindfoot foot volume in rat CIA model; type: in vivo, Lewis rats; details: CIA rats, hindfoot
Protocol: (§10) Lewis rats (female, 10-12 weeks old) were obtained from Beijing Vital River Laboratory Animal Technology Co., Ltd. The rats were on a light and dark alternation for 12 h, and the environment was kept at a temperature of 23±2° C. and a humidity of 40-70%.
(§11) Type II collagen solution (2 mg/mL) was prepared with 0.05 M acetic acid solution to allow to be fully dissolved, and placed overnight in the dark at 4° C. During the test, 2 mg/mL type II collagen (C II) solution and 4 mg/mL complete Freund's adjuvant (CFA) solution were mixed in equal volumes under ice bath conditions to fully emulsify. On day 0, an emulsion prepared by mixing equal volumes of C II (2 mg/mL) and CFA (4 mg/mL) was injected intracutaneously into the base of the tail of experimental rats for primary immunization, and on day 7, secondary booster immunization was performed.
(§12) The therapeutic effect of the test compound was tested in a rat CIA model. The rats were randomly divided into groups with 8 animals in each group. All animals were immunized on day 0 and boosted on day 7.
(§13) Therefore, the differences in body weight and foot volume after the onset of arthritis compared with the negative group, respectively, can be used to evaluate the therapeutic effect in the rat model. The experimental data were expressed as Mean±SEM; the data between the two groups was tested by unpaired t-test and p<0.05 was considered as a significant difference.

Hela cells = assay: Proliferation inhibition based on Hela cells (OSM stimulation, CTG); type: cell-based; details: Homo sapiens, read-out: IC50 (uM), proliferation inhibitory activity on Hela cells
Protocol: (§6) 1. Cell plating: cultured cells were collected and counted for viable cells with Vi-Cell XR cell counter. The cell suspension was adjusted to an appropriate concentration with the medium and then added to a 96-well cell culture plate. 50 μL-100 μL of the cell suspension was added to each well of the 96-well cell culture plate. The cell plating density depended on the growth rate of the cells. The cells were cultured in corresponding incubators.
2. Drug Treatment and OSM Stimulation
Firstly, a series of test compound concentration (work solution-1) was prepared using DMSO with 3× gradient dilution, and then it was subjected to fold dilution with RPMI1640+10% FBS to obtain a work solution-2; Cisplatin's work solution-2 was prepared with RPMI1640+10% FBS, and then 1-10 μL solution taken from the work solution-2 was added to the prepared cell wells containing medium. After incubation, 1-10 μL of OSM medium was added to each well and continued to culture. An appropriate CTG solution was added to each well. The mixture was shaken and mixed for 1-5 min and then a luminescence signal was determined with an Envision2104 plate reader.
(§7) Cell Survival Rate Calculation
(§8) T is the luminescence reading of a drug treatment group, and C is the average luminescence reading of a solvent control group.

BaF3 cells = assay: Proliferation inhibition based on BaF3 cells (IL-3 medium, CTG); type: cell-based; details: Mus musculus, medium containing IL-3, read-out: IC50 (uM), proliferation inhibitory activity on BaF3 cells
Protocol: 1. Cell plating: cultured cells were collected with RPMI1640+10% FBS (containing IL-3) medium and counted for viable cells with Vi-Cell XR cell counter. The cell suspension was adjusted to an appropriate concentration with RPMI1640+10% FBS (containing IL-3) medium and then added to a 96-well cell culture plate. A certain amount of cell suspension was added to each well of the 96-well cell culture plate. The cells were cultured in corresponding incubators.
(§9) 2. Drug treatment: a series of test compound concentration (work solution-1) was prepared using DMSO with 3× gradient dilution, and then it was subjected to fold dilution with RPMI1640+10% FBS (containing IL-3) to obtain a work solution-2; Cisplatin's work solution-2 was prepared with RPMI1640+10% FBS (containing IL-3), and then 1-10 μL solution taken from the work solution-2 was added to the prepared cell wells containing medium. The cells were cultured in the corresponding incubators. An appropriate CTG solution was added to each well.
as §7, §8

THP1 cells = assay: Proliferation inhibition based on THP1 cells (IL-4 stimulation, CTG); type: cell-based; details: Homo sapiens, THP-1, read-out: IC50 (uM), proliferation inhibitory activity on THP1 cells
Protocol: as §6, with “80” for “50 μL-100”
as §9, with “treatment and IL-4 stimulation: firstly,” for “treatment:”, “FBS” for “FBS (containing IL-3)”, “FBS,” for “FBS (containing IL-3),”, “incubators. After incubation, 1-10 μL of IL-4 medium was added to each well and continued to culture.” for “incubators.”
Cell Survial Rate Calculation
as §8

Pharmacokinetic study = type: in vivo; details: rat, plasma; rats, oral, 1-10 mg/kg
Protocol: For the intravenous route and the oral route, the compound was formulated in an aqueous solution containing 5% DMSO+95% hydroxypropyl-β-cyclodextrin. Test animals were administered orally at 1-10 mg/kg and intravenously at 1-5 mg/kg. Each group included 3 rats. About 0.2 mL of blood was collected by jugular vein puncture with heparin sodium anticoagulant at the following time points: 0.083 h, 0.25 h, 0.5 h, 1 h, 2 h, 4 h, 6 h, 8 h, 10 h and 24 h. Plasma was separated by centrifugation at 5000-13000 rpm for 10 min within 1 hour after collecting the blood sample, and the plasma sample was analyzed on LC-MS/MS.
The pharmacokinetic parameters were calculated using Phoenix WinNonlin 7.0 based on blood drug concentration data at different time points to provide parameters such as AUC0-t, AUC0-∞, MRT0-∞, Cmax, Tmax, and T1/2.

[2] = rat, in vivo, 2 mg/kg
Protocol: as §10, §11, §12, §13

rat CIA model [3] = assay: Arthritis index (AI) of extremities in rat CIA model; details: CIA rats, 2 mg/kg oral gavage once daily for 2 w, score 0-16;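 further: rats immunized with type II collagen plus complete Freund's adjuvant on day 0, boosted day 7, groups of 8, each paw graded 0-4 for swelling or redness, higher means worse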
Protocol: as §10, §11, §12
Foot volume was scored for the swelling of four toes at the same time, the score for each foot was 0-4, and the highest score for each rat was 16. 0—no swelling, normal appearance; 1—mild swelling or redness of the ankle joint, wrist joint or finger joint; 2—moderate swelling or redness of the ankle joint, wrist joint or finger joint; 3—severe swelling or redness of the ankle joint, wrist joint or finger joint; 4—very severe swelling or redness of the ankle joint, wrist joint or finger joint.

Sequence of JAK1 (P23458 whole entry, species assumed): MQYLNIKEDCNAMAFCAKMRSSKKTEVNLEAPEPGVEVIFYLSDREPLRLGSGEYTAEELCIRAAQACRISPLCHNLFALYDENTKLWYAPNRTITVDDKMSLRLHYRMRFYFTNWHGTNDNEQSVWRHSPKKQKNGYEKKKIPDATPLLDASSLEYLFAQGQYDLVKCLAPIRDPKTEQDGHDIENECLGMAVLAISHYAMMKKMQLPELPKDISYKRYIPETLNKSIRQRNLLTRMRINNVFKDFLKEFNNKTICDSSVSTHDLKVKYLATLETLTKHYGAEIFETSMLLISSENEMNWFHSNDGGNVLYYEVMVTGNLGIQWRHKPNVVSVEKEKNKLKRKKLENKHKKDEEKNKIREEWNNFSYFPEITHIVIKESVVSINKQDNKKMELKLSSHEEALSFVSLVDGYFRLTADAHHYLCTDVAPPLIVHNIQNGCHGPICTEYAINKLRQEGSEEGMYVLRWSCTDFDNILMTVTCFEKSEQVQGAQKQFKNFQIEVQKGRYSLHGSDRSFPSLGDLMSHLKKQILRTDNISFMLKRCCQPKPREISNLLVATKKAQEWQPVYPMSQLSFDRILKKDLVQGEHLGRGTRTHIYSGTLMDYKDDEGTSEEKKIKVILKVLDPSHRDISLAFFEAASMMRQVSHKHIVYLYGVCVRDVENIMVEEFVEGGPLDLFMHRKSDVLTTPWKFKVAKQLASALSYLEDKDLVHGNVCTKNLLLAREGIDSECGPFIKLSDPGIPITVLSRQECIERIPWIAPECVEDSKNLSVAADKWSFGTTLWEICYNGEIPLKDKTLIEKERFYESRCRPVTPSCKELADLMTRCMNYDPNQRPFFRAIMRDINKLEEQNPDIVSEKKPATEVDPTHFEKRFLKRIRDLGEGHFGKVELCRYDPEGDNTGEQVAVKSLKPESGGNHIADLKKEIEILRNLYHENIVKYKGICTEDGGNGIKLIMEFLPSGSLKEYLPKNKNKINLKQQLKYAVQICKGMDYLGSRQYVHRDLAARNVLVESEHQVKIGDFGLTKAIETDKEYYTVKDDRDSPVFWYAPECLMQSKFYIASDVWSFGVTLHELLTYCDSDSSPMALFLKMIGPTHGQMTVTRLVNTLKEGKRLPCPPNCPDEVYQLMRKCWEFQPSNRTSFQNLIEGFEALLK
Sequence of TYK2 (P29597 whole entry, species assumed): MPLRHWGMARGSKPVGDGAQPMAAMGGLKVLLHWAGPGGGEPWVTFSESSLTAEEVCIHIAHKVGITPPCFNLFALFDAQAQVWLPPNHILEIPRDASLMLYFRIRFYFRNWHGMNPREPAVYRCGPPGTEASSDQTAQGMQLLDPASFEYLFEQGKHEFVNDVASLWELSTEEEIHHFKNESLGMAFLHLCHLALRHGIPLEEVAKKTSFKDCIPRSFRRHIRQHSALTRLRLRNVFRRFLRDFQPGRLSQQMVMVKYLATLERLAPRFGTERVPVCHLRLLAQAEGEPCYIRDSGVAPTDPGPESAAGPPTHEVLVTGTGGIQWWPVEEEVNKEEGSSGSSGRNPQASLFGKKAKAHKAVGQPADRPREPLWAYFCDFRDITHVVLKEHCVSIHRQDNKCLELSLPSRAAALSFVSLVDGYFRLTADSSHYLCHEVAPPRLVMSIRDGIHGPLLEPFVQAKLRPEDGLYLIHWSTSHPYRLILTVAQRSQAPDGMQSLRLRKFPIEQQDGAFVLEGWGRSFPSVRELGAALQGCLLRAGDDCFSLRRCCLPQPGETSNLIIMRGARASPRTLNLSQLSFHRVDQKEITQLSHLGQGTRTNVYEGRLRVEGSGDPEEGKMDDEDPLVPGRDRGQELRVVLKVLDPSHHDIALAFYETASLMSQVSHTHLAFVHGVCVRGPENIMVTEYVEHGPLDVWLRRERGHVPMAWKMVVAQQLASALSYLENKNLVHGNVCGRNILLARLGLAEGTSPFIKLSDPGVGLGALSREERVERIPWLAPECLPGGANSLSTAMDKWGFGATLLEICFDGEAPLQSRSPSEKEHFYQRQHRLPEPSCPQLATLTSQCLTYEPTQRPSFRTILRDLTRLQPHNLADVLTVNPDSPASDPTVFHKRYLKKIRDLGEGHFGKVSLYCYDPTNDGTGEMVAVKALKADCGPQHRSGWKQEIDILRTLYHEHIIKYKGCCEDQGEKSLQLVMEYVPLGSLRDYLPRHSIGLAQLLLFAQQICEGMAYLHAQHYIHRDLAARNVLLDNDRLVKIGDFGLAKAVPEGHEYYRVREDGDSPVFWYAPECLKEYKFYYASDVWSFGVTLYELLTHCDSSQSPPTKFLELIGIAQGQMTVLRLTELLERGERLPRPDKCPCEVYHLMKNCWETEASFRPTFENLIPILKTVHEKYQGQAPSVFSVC
Sequence of JAK2 (O60674 whole entry, species assumed): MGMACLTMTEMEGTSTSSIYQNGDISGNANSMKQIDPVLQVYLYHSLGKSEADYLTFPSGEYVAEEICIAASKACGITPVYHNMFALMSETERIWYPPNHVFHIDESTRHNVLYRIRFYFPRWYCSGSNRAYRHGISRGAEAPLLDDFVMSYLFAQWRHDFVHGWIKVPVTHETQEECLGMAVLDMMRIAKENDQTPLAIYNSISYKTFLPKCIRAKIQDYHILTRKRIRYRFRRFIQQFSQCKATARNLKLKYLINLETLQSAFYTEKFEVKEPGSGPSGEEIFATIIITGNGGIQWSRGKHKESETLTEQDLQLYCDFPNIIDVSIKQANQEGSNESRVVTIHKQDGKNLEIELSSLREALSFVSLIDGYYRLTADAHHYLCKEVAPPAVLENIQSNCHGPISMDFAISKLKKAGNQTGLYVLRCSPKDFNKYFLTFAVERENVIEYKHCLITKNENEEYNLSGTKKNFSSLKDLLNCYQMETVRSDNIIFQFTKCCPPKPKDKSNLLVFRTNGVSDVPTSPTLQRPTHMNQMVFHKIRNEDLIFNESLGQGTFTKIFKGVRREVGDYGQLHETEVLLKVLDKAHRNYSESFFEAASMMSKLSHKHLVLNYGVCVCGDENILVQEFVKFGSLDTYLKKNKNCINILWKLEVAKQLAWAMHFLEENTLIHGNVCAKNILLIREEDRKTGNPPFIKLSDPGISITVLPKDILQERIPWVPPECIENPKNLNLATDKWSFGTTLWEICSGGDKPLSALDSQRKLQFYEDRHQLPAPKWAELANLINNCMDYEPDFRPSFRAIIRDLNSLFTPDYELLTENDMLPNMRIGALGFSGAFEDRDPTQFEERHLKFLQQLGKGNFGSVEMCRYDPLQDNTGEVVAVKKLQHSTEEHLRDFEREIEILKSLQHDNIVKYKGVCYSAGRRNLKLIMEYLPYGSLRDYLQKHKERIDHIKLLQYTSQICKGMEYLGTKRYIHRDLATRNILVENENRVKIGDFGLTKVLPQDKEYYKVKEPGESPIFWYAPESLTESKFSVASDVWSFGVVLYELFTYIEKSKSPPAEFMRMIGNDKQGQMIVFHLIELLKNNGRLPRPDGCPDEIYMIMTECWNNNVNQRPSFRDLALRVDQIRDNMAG

O=C(Nc1nc2cccc(-c3ccc(CN4CCS(=O)(=O)CC4)s3)n2n1)[C@H]1C[C@@H]1F [EXP-6]
IC50 (JAK2): 50 to 500 nM
IC50 (JAK3): > 500 nM
IC50 (JAK1): 50 to 500 nM
IC50 (TYK2): > 500 nM

O=C(Nc1nc2cccc(-c3ccc(CN4CCS(=O)(=O)CC4)cc3)n2n1)C1CC1 [Filgotinib, reference compound]
Foot volume (ml)/Day (rat CIA model [1]; 10 mg/kg oral gavage once daily for 2 w, day 0): 2.597 ± 0.014 mL
Foot volume (ml)/Day (rat CIA model [1]; 10 mg/kg oral gavage once daily for 2 w, day 8): 2.589 ± 0.020 mL
Foot volume (ml)/Day (rat CIA model [1]; 10 mg/kg oral gavage once daily for 2 w, day 11): 2.700 ± 0.090 mL
Foot volume (ml)/Day (rat CIA model [1]; 10 mg/kg oral gavage once daily for 2 w, day 14): 3.644 ± 0.330 mL
Foot volume (ml)/Day (rat CIA model [1]; 10 mg/kg oral gavage once daily for 2 w, day 17): 4.702 ± 0.255 mL
Foot volume (ml)/Day (rat CIA model [1]; 10 mg/kg oral gavage once daily for 2 w, day 21): 4.829 mL
Foot volume (ml)/Day (rat CIA model [1]; 10 mg/kg oral gavage once daily for 2 w, day 24): 4.769 mL
Foot volume (ml)/Day (rat CIA model [1]; 10 mg/kg oral gavage once daily for 2 w, day 28): 4.363 mL
IC50 (Hela cells): 5 to 30 µM
IC50 (BaF3 cells): 5 to 30 µM
IC50 (THP1 cells): 5 to 30 µM
AUC (Pharmacokinetic study): 2850 ng·h/mL
Cmax (Pharmacokinetic study): 426 ng/mL
half-life (Pharmacokinetic study): 3.9 h

C[C@@H]1CCN(C(=O)CC#N)C[C@@H]1N(C)c1ncnc2[nH]ccc12 [Tofacitinib, tofacitinib citrate, reference compound]
Foot volume (ml)/Day (rat CIA model [1]; 2 mg/kg oral gavage once daily for 2 w, day 0): 2.637 ± 0.020 mL
Foot volume (ml)/Day (rat CIA model [1]; 2 mg/kg oral gavage once daily for 2 w, day 8): 2.619 ± 0.019 mL
Foot volume (ml)/Day (rat CIA model [1]; 2 mg/kg oral gavage once daily for 2 w, day 11): 2.646 ± 0.045 mL
Foot volume (ml)/Day (rat CIA model [1]; 2 mg/kg oral gavage once daily for 2 w, day 14): 3.848 ± 0.333 mL
Foot volume (ml)/Day (rat CIA model [1]; 2 mg/kg oral gavage once daily for 2 w, day 17): 4.636 ± 0.306 mL
Foot volume (ml)/Day (rat CIA model [1]; 2 mg/kg oral gavage once daily for 2 w, day 21): 4.710 mL
Foot volume (ml)/Day (rat CIA model [1]; 2 mg/kg oral gavage once daily for 2 w, day 24): 4.509 mL
Foot volume (ml)/Day (rat CIA model [1]; 2 mg/kg oral gavage once daily for 2 w, day 28): 4.125 mL
body weight course, in words [2]: increased slightly on days 11-17, but then fell back
Arthritis index/Day (rat CIA model [3]; day 0): 0 ± 0
Arthritis index/Day (rat CIA model [3]; day 8): 0 ± 0
Arthritis index/Day (rat CIA model [3]; day 11): 0.63 ± 0.32
Arthritis index/Day (rat CIA model [3]; day 14): 3.75 ± 0.77
Arthritis index/Day (rat CIA model [3]; day 17): 5.25 ± 0.62
Arthritis index/Day (rat CIA model [3]; day 21): 8.75 ± 0.59
Arthritis index/Day (rat CIA model [3]; day 24): 8.75 ± 0.73
Arthritis index/Day (rat CIA model [3]; day 28): 7.88 ± 0.58
